Data as given in BindingDB's records for patent US12421225 (Kaken Pharmaceutical Co., 2025).

Target: Sodium channel protein type 9 subunit alpha (Homo sapiens, UniProt Q15858)
Test: Human Nav1.7 Inhibitory Activity Evaluation
Procedure: The amount of current through human Nav1.7 was recorded using a fully automatic patch clamp device QPatch16X (Sophion Biosciences) at room temperature. As the extracellular solution, the solution of 145 mM NaCl, 4 mM KCl, 1 mM MgCl2, 2 mM CaCl2, 10 mM Glucose, 10 mM 4-(2-hydroxyethyl)-1-piperazine ethanesulfonic acid (HEPES) at pH 7.4 was used. As the intracellular solution, the solution of 135 mM CsF, ⅕ mM glycol ether diaminetetraacetic acid (EGTA)/CsOH, 10 mM HEPES, 10 mM NaCl at pH 7.3 was used. The test compounds were dissolved in dimethyl sulfoxide (DMSO) and diluted with the extracellular solution to attain the DMSO concentration of 0.1% at the time of assay. The current response was obtained at a sampling frequency of 25 kHz, and noise was removed with a 3 kHz low-pass filter. The holding potential was −100 mV. Correction of the leakage current was carried out by applying a step pulse of −120 mV before the test pulse. In order to investigate inhibitory action of the test compound, the following test pulse was given: Namely, after depolarizing pulse of −10 mV was applied for 50 milliseconds, it was fixed at −120 mV for 500 milliseconds; a potential at which about 30-40% of the channel was inactivated was maintained for 15 seconds, then fixed again at −120 mV for 100 milliseconds, and finally a −10 mV depolarization pulse was given for 50 milliseconds. Test pulses were given before and after the test compound addition.

Sodium channel protein type 9 subunit alpha, sequence (Q15858 whole entry): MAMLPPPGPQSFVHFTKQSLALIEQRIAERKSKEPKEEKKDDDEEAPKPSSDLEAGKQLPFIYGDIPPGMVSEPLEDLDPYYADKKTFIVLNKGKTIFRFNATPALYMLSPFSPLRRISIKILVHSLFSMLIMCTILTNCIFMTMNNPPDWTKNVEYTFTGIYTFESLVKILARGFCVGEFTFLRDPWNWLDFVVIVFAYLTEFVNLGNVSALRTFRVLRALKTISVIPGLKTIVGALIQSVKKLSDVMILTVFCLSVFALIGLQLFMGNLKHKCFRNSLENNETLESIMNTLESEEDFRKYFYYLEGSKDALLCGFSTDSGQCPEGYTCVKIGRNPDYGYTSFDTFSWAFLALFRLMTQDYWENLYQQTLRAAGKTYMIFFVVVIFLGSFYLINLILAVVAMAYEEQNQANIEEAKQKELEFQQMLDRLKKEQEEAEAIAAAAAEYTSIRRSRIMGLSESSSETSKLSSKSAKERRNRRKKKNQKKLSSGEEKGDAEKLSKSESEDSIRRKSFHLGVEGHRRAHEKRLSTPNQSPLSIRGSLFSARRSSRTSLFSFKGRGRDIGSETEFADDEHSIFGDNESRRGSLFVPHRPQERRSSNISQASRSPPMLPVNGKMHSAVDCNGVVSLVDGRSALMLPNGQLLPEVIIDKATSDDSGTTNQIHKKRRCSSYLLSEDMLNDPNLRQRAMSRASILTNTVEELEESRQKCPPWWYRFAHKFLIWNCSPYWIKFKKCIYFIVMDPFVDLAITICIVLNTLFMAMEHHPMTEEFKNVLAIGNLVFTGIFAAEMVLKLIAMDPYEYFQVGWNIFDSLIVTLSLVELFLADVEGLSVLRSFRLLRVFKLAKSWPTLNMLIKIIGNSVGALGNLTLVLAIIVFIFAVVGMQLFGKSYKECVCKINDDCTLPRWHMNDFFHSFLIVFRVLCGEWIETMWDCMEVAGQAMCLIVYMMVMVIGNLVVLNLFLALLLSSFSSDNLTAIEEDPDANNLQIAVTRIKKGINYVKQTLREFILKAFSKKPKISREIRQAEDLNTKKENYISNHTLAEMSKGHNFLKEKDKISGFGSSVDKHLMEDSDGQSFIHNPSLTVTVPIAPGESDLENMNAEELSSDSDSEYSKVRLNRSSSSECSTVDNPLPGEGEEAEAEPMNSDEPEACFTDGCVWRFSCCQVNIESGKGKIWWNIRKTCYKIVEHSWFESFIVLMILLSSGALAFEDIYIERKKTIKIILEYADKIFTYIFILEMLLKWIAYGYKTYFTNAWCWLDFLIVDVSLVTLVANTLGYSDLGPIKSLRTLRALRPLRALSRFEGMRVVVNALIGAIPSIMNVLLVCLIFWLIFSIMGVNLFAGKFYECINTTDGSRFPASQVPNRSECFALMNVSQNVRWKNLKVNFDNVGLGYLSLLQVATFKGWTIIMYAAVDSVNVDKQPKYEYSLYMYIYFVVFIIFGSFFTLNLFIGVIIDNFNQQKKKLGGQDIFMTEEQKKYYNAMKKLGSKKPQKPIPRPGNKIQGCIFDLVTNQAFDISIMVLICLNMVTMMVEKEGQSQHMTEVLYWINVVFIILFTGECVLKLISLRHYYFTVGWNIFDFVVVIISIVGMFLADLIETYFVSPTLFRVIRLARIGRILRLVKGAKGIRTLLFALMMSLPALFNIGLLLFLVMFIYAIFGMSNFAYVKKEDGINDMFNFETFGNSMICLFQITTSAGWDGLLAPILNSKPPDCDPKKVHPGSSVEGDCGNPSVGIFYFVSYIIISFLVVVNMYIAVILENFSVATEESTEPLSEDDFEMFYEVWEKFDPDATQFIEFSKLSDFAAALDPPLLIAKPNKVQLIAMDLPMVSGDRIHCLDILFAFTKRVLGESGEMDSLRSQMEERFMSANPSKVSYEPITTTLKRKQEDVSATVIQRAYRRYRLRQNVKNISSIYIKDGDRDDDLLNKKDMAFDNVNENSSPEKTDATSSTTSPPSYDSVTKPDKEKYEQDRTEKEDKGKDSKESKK

Row | Structure (SMILES) | IC50 [nM]
1 | N#Cc1ccc2c(c1)C[C@@H](NC(=O)c1cc3n(n1)C[C@@H](CCCOC(F)(F)F)O3)CO2 (single isomer, unassigned; isomer B) [US12421225, Example 247 (isomer B)] | < 1000
2 | N#Cc1ccc2c(c1)C[C@@H](NC(=O)c1cc3n(n1)CC[C@@H](COCC1(F)CC1)O3)CO2 (single isomer, unassigned; isomer B) [US12421225, Example 552 (isomer B)] | ≤ 10000
3 | O=C(N[C@H]1COc2ccc(Br)cc2C1)c1cc2n(n1)CC(C(F)(F)F)O2 (some centres not stated) [US12421225, Example 445] | < 1000

Other lines, results leading:

Row | IC50 [nM] | Structure (SMILES)
4 | < 1000 | N#Cc1ccc2c(c1)C[C@@H](NC(=O)c1cc3n(n1)CCC(CC1CC1)O3)CO2 (single isomer, unassigned) [US12421225, Example 97 (isomer B)]
5 | < 1000 | CC[C@@H]1CCn2nc(C(=O)N[C@H]3COc4ccc(C#N)cc4C3)cc2O1 (single isomer, unassigned; isomer B) [US12421225, Example 92 (isomer B)]
6 | < 1000 | O=C(N[C@H]1COc2ccc(-c3ccccn3)cc2C1)c1cc2n(n1)CC[C@@H](COCC1CC1)O2 (single isomer, unassigned; isomer B) [US12421225, Example 111 (isomer B)]
7 | < 1000 | O=C(N[C@H]1COc2ccc(CC(F)F)cc2C1)c1cc2n(n1)CC[C@@H](COCC(F)(F)F)O2 (single isomer, unassigned; isomer B) [US12421225, Example 127 (isomer B)]
